Each structure is given as a SMILES string.

A short description of one data set: Acute oral toxicity test. The conditions noted are these: mouse, in vivo, ICR male mice (5 weeks old), read-out: Acute oral toxicity LD₅₀. As to the method: (§1) Tests of the acute oral toxicity and the acute dermal toxicity of the encapsulated insecticide produced in Example 2 and the acute toxicity thereof to fish were carried out as follows.
(§2) A group of 5 ICR male mice (5 weeks old) and a group of 5 Wister male rats (8 weeks old) were used for the acute oral toxicity test and the acute dermal toxicity test, respectively. Tests were carried out to obtain LD₅₀ values in accordance with the toxicity guidance of agricultural chemicals (Agricultural production No. 59 - 4200) (Notification of Director-General, Agricultural Production Bureau, 59 Nohsan No. 4200 dated January 28, 1985) issued by the Agricultural and Fisheries Ministry. The test for acute toxity to fish was carried out using groups of carp, each group consisting of 10 carp, in accordance with the Circular Notice No. 2735 issued by Director of the Agricultural Administration Bureau in the Agricultural and Fisheries Ministry to obtain the TLm of each group.

The nature of data set [1]: Acute dermal toxicity test. The conditions noted are these: Wistar, rat, in vivo, topical or ocular, Wister male rats (8 weeks old), read-out: Acute dermal toxicity LD₅₀. How it is done: as §1, §2
The subject of another data set is carp. Put plainly: Acute toxicity to fish. The class given is in vivo. As to the method: as §1, §2
Data set [2] can be described thus: Test of the release property in soil. The conditions noted are these: sand soil, 65 days; rate based on the original amount. In kind it is physicochemical. How it is done: 7.5 g of the encapsulated insecticide produced in Example 2 was dispersed in 100 mℓ of water, and 1 mℓ of the dispersion was added to 30 g of soil (sand soil of Mt. Kannan) which had been put into a 100-mℓ beaker, and thoroughly mixed therewith.
Separately from this, 1500 mg of the chlorpyrifos was dissolved into 100 mℓ of acetone and 1 mℓ of the solution was added to 30 g of soil (same as above) and thoroughly mixed therewith.
The beaker was covered with aluminium foil, and water was sometimes sprayed on the soil to prevent the soil from drying. 65 days after, the amount of chlorpyrifos in the beaker was measured.
In order to measure the total amount of chlorpyrifos, 150 mℓ of acetone and 2 mℓ of concentrated hydrochloric acid was added to 30 g of the soil. The mixture was refluxed under heating in a water bath at 65°C for 1 hour, and after cooling filtered through No. 5C filter paper. The residue was further washed with 100 mℓ of acetone, and diluted so that the total volume was 250 mℓ to measure the amount of chlorpyrifos by high-speed liquid chromatography.
The amount of chlorpyrifos liberated was measured in the following manner. A mixture solvent of methanol and water (60/40) was added to 30 g of the soil. After the mixture was shaken for 10 minutes, the mixture was filtered through No. 5C filter paper. […]

For the compound `CCOP(=S)(OCC)Oc1nc(Cl)c(Cl)cc1Cl` [Technical, 0,0-diethyl-0-3,5,6-trichloro-2-pyridyl-phosphorothioate], the LD50 came out at 178 mg/kg in “Acute oral toxicity test” and 202 mg/kg in data set [1]. For the same compound, the “Toxicity to fish TLm (48 h)” value in the data set on carp is 0.13 ppm. In addition, the “Amount of chlorpyrifos remaining in the soil: Total amount of chlorpyrifos” value in data set [2] worked out at 41 wt%.

The values are drawn from patent EP0368576B1, “Insecticide comprising a suspension of microcapsules containing chlorpyrifos” (priority 1988, dated 1990).
